Marks after values point to notes of the source that are not given here.
Legend:
Breast Cancer cell lines = experiment: NCI full panel screen, panel average; conditions: Homo sapiens, read-out: cytotoxicity, average of all Breast Cancer cell lines
Leukemia cell lines = experiment: NCI full panel screen, panel average; conditions: Homo sapiens, read-out: cytotoxicity, average of all Leukemia cell lines
SN12C = conditions: read-out: GI50 SN12C; Table 4
NCI/ADR-RES = conditions: Table 4; for GI50: read-out: GI50 NCI/ADR-RES; for CC50: read-out: LC50 NCI/ADR-RES
[1] = tested on: Prostate Cancer cell lines; experiment: NCI full panel screen, panel average; conditions: Homo sapiens, read-out: cytotoxicity, average of all Prostate Cancer cell lines
NCI-H522 = conditions: Table 4; for GI50: read-out: GI50 NCI-H522; for CC50: read-out: LC50 NCI-H522
DU-145 = experiment: NCI full panel screen; conditions: Table 4; for GI50: read-out: GI50 DU-145; for CC50: read-out: LC50 DU-145
Breast cancer cell MCF-7 = experiment: Preliminary cytotoxicity test; format: cell-based, human
UACC-82 = conditions: read-out: GI50 UACC-82; Table 4
SW-620 = conditions: Table 4; for GI50: read-out: GI50 SW-620; for CC50: read-out: LC50 SW-620
CAKI-1 = conditions: Table 4; for GI50: read-out: GI50 CAKI-1; for CC50: read-out: LC50 CAKI-1
[2] = tested on: Non-Small Cell Lung Cancer cell lines; experiment: NCI full panel screen, panel average; conditions: Homo sapiens, read-out: cytotoxicity, average of all Non-Small Cell Lung Cancer cell lines
IGROV1 = conditions: Table 4; for GI50: read-out: GI50 IGROV1; for CC50: read-out: LC50 IGROV1
U251 = conditions: Table 4; for GI50: read-out: GI50 U251; for CC50: read-out: LC50 U251
[3] = tested on: Non-small cell Lung cancer cell NCI-H460; experiment: Preliminary cytotoxicity test; format: cell-based, human
SF-295 = conditions: Table 4; for GI50: read-out: GI50 SF-295; for CC50: read-out: LC50 SF-295
SK-MEL-5 = conditions: Table 4; for GI50: read-out: GI50 SK-MEL-5; for CC50: read-out: LC50 SK-MEL-5
CNS Cancer cell lines = experiment: NCI full panel screen, panel average; conditions: Homo sapiens, read-out: cytotoxicity, average of all CNS Cancer cell lines
[4] = tested on: Ovarian Cancer cell lines; experiment: NCI full panel screen, panel average; conditions: Homo sapiens, read-out: cytotoxicity, average of all Ovarian Cancer cell lines
NCI-H23 = conditions: read-out: GI50 NCI-H23; Table 4
K-562 = conditions: Table 4; for GI50: read-out: GI50 K-562; for CC50: read-out: LC50 K-562
SR = experiment: NCI full panel screen; conditions: Table 4; for GI50: read-out: GI50 SR; for CC50: read-out: LC50 SR
MDA-MB-435 = conditions: read-out: GI50 MDA-MB-435; Table 4
OVCAR-3 = experiment: NCI full panel screen; conditions: Homo sapiens; for GI50: OVCAR-3, read-out: GI50 OVCAR-3; for CC50: OVCAR-3, read-out: LC50 OVCAR-3
Renal Cancer cell lines = experiment: NCI full panel screen, panel average; conditions: Homo sapiens, read-out: cytotoxicity, average of all Renal Cancer cell lines
KM12 = conditions: Table 4; for CC50: read-out: LC50 KM12
CNS cancer cell SF-268 = experiment: Preliminary cytotoxicity test; format: cell-based, human
PC-3 = conditions: read-out: GI50 PC-3; Table 4
Colon Cancer cell lines = experiment: NCI full panel screen, panel average; conditions: Homo sapiens, read-out: cytotoxicity, average of all Colon Cancer cell lines
Melanoma cell lines = experiment: NCI full panel screen, panel average; conditions: Homo sapiens, read-out: cytotoxicity, average of all Melanoma cell lines

Question: N#Cc1ccccc1C#CC=CC#Cc1ccccc1N [Compound 32, 2-[6-(o-anilinyl)-3-hexen-1,5-diynyl]benzonitrile] was tested. Which IC50 (Breast Cancer cell lines) did it give?
Answer: 2 µM

Question: What about the IC50 (Leukemia cell lines) of the same molecule?
Answer: 0.43 µM

Question: What about the GI50 (SN12C) of the same molecule?
Answer: 0.41 µM

Question: What about the GI50 (NCI/ADR-RES) of the same molecule?
Answer: 0.37 µM

Question: And the CC50 (NCI/ADR-RES)?
Answer: > 100 µM

Question: What about the IC50 [1] of the same molecule?
Answer: 3.13 µM

Question: And the GI50 (NCI-H522)?
Answer: 0.3 µM

Question: And the CC50 (NCI-H522)?
Answer: 8.62 µM

Question: What about the GI50 (DU-145) of the same molecule?
Answer: 3.48 µM

Question: And the CC50 (DU-145)?
Answer: > 100 µM

Question: What about the “Growth percentage, Breast cancer cell MCF-7” value (Breast cancer cell MCF-7) of the same molecule?
Answer: 36%

Question: And the GI50 (UACC-82)?
Answer: 0.37 µM

Question: What about the GI50 (SW-620) of the same molecule?
Answer: 0.39 µM

Question: What about the CC50 (SW-620) of the same molecule?
Answer: > 100 µM

Question: And the GI50 (CAKI-1)?
Answer: 0.13 µM

Question: What about the CC50 (CAKI-1) of the same molecule?
Answer: 35.9 µM

Question: And the IC50 [2]?
Answer: 1.7 µM

Question: And the GI50 (IGROV1)?
Answer: 0.27 µM

Question: What about the CC50 (IGROV1) of the same molecule?
Answer: > 100 µM

Question: What about the GI50 (U251) of the same molecule?
Answer: 0.43 µM

Question: What about the CC50 (U251) of the same molecule?
Answer: > 100 µM

Question: What about the “Growth percentage, Non-small cell Lung cancer cell NCI-H460” value [3] of the same molecule?
Answer: 8* %

Question: What about the GI50 (SF-295) of the same molecule?
Answer: 0.24 µM

Question: What about the CC50 (SF-295) of the same molecule?
Answer: 12.4 µM

Question: What about the GI50 (SK-MEL-5) of the same molecule?
Answer: 0.44 µM

Question: And the CC50 (SK-MEL-5)?
Answer: 33.1 µM

Question: And the IC50 (CNS Cancer cell lines)?
Answer: 9.44 µM

Question: And the IC50 [4]?
Answer: 1.55 µM

Question: And the GI50 (NCI-H23)?
Answer: 0.8 µM

Question: What about the GI50 (K-562) of the same molecule?
Answer: 0.48 µM

Question: And the CC50 (K-562)?
Answer: > 100 µM

Question: What about the GI50 (SR) of the same molecule?
Answer: 0.25 µM

Question: And the CC50 (SR)?
Answer: > 100 µM

Question: And the GI50 (MDA-MB-435)?
Answer: 0.11 µM

Question: What about the GI50 (OVCAR-3) of the same molecule?
Answer: 0.17 µM

Question: And the CC50 (OVCAR-3)?
Answer: 98.4 µM

Question: And the IC50 (Renal Cancer cell lines)?
Answer: 0.66 µM

Question: What about the CC50 (KM12) of the same molecule?
Answer: > 100 µM

Question: And the “Growth percentage, CNS cancer cell SF-268” value (CNS cancer cell SF-268)?
Answer: 27* %

Question: And the GI50 (PC-3)?
Answer: 2.78 µM

Question: And the IC50 (Colon Cancer cell lines)?
Answer: 0.47 µM

Question: And the IC50 (Melanoma cell lines)?
Answer: 0.77 µM

Question: N#Cc1ccccc1C#CC=CC#Cc1cnccn1 [Compound 30, 2-(6-(2-pyrazinyl)-3-hexen-1,5-diynyl)benzonitrile] was tested. Which IC50 (Breast Cancer cell lines) did it give?
Answer: 33.3 µM

Question: What about the IC50 (Leukemia cell lines) of the same molecule?
Answer: 5.05 µM

Question: What about the GI50 (SN12C) of the same molecule?
Answer: 22.6 µM

Question: And the GI50 (NCI/ADR-RES)?
Answer: 15.9 µM

Question: And the CC50 (NCI/ADR-RES)?
Answer: > 100 µM

Question: And the IC50 [1]?
Answer: 33.6 µM

Question: What about the GI50 (NCI-H522) of the same molecule?
Answer: 14.8 µM

Question: And the CC50 (NCI-H522)?
Answer: > 100 µM

Question: And the GI50 (DU-145)?
Answer: 36.3 µM

Question: And the CC50 (DU-145)?
Answer: > 100 µM

Question: What about the “Growth percentage, Breast cancer cell MCF-7” value (Breast cancer cell MCF-7) of the same molecule?
Answer: 73%

Question: And the GI50 (SW-620)?
Answer: 6.98 µM

Question: What about the CC50 (SW-620) of the same molecule?
Answer: > 100 µM

Question: And the GI50 (CAKI-1)?
Answer: 21.6 µM

Question: And the CC50 (CAKI-1)?
Answer: > 100 µM

Question: What about the IC50 [2] of the same molecule?
Answer: 11.8 µM

Question: What about the GI50 (IGROV1) of the same molecule?
Answer: 46.2 µM

Question: What about the CC50 (IGROV1) of the same molecule?
Answer: > 100 µM

Question: And the GI50 (U251)?
Answer: 36.1 µM

Question: What about the CC50 (U251) of the same molecule?
Answer: > 100 µM

Question: And the “Growth percentage, Non-small cell Lung cancer cell NCI-H460” value [3]?
Answer: 8* %

Question: What about the GI50 (SF-295) of the same molecule?
Answer: 17.6 µM

Question: And the CC50 (SF-295)?
Answer: > 100 µM

Question: And the GI50 (SK-MEL-5)?
Answer: 19.6 µM

Question: What about the CC50 (SK-MEL-5) of the same molecule?
Answer: > 100 µM

Question: What about the IC50 (CNS Cancer cell lines) of the same molecule?
Answer: 32.2 µM

Question: And the IC50 [4]?
Answer: 38.1 µM

Question: And the GI50 (NCI-H23)?
Answer: 15.9 µM

Question: And the GI50 (K-562)?
Answer: 4.88 µM

Question: And the CC50 (K-562)?
Answer: > 100 µM

Question: And the GI50 (SR)?
Answer: 4.3 µM

Question: And the CC50 (SR)?
Answer: > 100 µM

Question: And the GI50 (MDA-MB-435)?
Answer: 5.3 µM

Question: And the GI50 (OVCAR-3)?
Answer: 16.6 µM

Question: And the CC50 (OVCAR-3)?
Answer: > 100 µM

Question: And the IC50 (Renal Cancer cell lines)?
Answer: 27 µM

Question: And the GI50 (KM12; read-out: GI50 KM12)?
Answer: 4.39 µM

Question: What about the CC50 (KM12) of the same molecule?
Answer: > 100 µM

Question: What about the “Growth percentage, CNS cancer cell SF-268” value (CNS cancer cell SF-268) of the same molecule?
Answer: 84%

Question: What about the GI50 (PC-3) of the same molecule?
Answer: 30.9 µM

Question: What about the IC50 (Colon Cancer cell lines) of the same molecule?
Answer: 7.54 µM

Question: What about the IC50 (Melanoma cell lines) of the same molecule?
Answer: 18.7 µM

Question: What does the source list for N#Cc1ccccc1C#CC=CC#Cc1ccccn1 [Compound 27, 2-(6-(2-pyridinyl)-3-hexen-1,5-diynyl)benzonitrile]?
Answer: IC50 (Breast Cancer cell lines): 14.3 µM; IC50 (Leukemia cell lines): 12.8 µM; GI50 (SN12C): 20.4 µM; GI50 (NCI/ADR-RES): 16.5 µM; CC50 (NCI/ADR-RES): 71 µM; IC50 [1]: 21.2 µM; CC50 (NCI-H522): 84.7 µM; CC50 (DU-145): > 100 µM; Growth percentage, Breast cancer cell MCF-7 (Breast cancer cell MCF-7): 49%; GI50 (UACC-82): 15.3 µM; GI50 (SW-620): 12.6 µM; CC50 (SW-620): 80.5 µM; GI50 (CAKI-1): 21.8 µM; CC50 (CAKI-1): > 100 µM; IC50 [2]: 19.6 µM; GI50 (IGROV1): 17 µM; CC50 (IGROV1): 79.1 µM; CC50 (U251): 79 µM; Growth percentage, Non-small cell Lung cancer cell NCI-H460 [3]: 23* %; GI50 (SF-295): 20.1 µM; CC50 (SF-295): > 100 µM; GI50 (SK-MEL-5): 2.99 µM; CC50 (SK-MEL-5): 41.6 µM; IC50 (CNS Cancer cell lines): 20.9 µM; IC50 [4]: 27.3 µM; GI50 (NCI-H23): 12.3 µM; CC50 (K-562): > 100 µM; CC50 (SR): > 100 µM; GI50 (OVCAR-3): 4.26 µM; CC50 (OVCAR-3): 56.9 µM; IC50 (Renal Cancer cell lines): 21.7 µM; CC50 (KM12): 80.4 µM; Growth percentage, CNS cancer cell SF-268 (CNS cancer cell SF-268): 83%; GI50 (PC-3): 13.7 µM; IC50 (Colon Cancer cell lines): 16.3 µM; IC50 (Melanoma cell lines): 14.2 µM
